Reference: article PMC11790763, “A Peptide Motif Covering Splice Site B in Neuroligin-1 Binds to Aβ and Acts as a Neprilysin Inhibitor” (Molecular Neurobiology, 2024)
Where a SMILES comes first, the peptide text is derived from it. Bridges are numbered along the chain shown (N, C = ends). Roman numbers before positions name the chains, in order. Where no end group is shown, it is not given here.

Key:
Aβ1-40 = biological target: T1, Aβ1-40 (Homo sapiens, UniProt P05067); assay: Competitive ELISA, binding to biotinylated Aβ1-40; details: Table 1, title prints Aβ1-42, text and method Aβ1-40, IC50 interpreted as KD
T1 construct: biotinylated Aβ1-40, at final concentration 400 nM; purchased Bachem AG (Bubendorf, Switzerland) or Schafer-N; host or cells: synthetic peptide
Method: NL1 and NL1-derived peptide binding to Aβ was measured by competitive ELISA using the shorter Aβ1-40 peptide with a slower polymerization constant, optimized for this binding assay. Recombinant NL1 (3.125 nM) was immobilized on a poly-sorb 96-well plate (NUNC, Roskilde, Denmark) using sodium bicarbonate buffer (pH 9.6), and left overnight at 4 °C, followed by washing with PBST buffer (PBS supplemented with 0.1% [vol/vol] Tween-20, pH 7.4). In separate tubes, biotinylated Aβ1-40, at final concentration 400 nM, was premixed with serially diluted NL1 or NL1-derived peptides for 30 min. A reversed version of Aβ (Aβ40-1) was used as the respective negative control (Supplementary Fig. 1). After preincubation, the samples were centrifuged at 20,000 × g for 10 min at 4 °C and 100 μl of the mixtures were transferred in triplicates onto the precoated ELISA plate. Plates were incubated at room temperature for 4 h, followed by washing and incubation with streptavidin-HRP conjugate (1:1000, 1 h; Dako, Glostrup, Denmark). The signal was developed with TMB ONE (KEM-EN-TEC, Denmark), and the reaction was terminated with 0.2 M H2SO4. Absorbance was measured at 450 nm on a Wallac VICTOR2 1420 Multilabel Counter (PerkinElmer, Hvidovre, Denmark). KD values were derived by sigmoidal dose–response (variable slope) fit of NL1 and neurolide dose–response curves after log transformation according to GraphPad Prism (version 6, GraphPad, San Diego, CA, USA). Obtained inhibitory concentration IC50 value was interpreted as KD value.

brain-derived NEP = biological target: T2, brain-derived NEP (Mus musculus, UniProt Q61391); assay: Neprilysin activity in NEP-enriched brain membrane fraction of WT mice; type: biochemical, mouse (C57Bl/6j); details: 40 μg protein, Thiorphan 100 nM
T2 construct: Clear supernatants were used as membrane-extracted fractions; from tissue; host or cells: adult mouse brain without cerebellum, Triton X-100-extracted membrane fraction
T2 sequence (Q61391 1-750): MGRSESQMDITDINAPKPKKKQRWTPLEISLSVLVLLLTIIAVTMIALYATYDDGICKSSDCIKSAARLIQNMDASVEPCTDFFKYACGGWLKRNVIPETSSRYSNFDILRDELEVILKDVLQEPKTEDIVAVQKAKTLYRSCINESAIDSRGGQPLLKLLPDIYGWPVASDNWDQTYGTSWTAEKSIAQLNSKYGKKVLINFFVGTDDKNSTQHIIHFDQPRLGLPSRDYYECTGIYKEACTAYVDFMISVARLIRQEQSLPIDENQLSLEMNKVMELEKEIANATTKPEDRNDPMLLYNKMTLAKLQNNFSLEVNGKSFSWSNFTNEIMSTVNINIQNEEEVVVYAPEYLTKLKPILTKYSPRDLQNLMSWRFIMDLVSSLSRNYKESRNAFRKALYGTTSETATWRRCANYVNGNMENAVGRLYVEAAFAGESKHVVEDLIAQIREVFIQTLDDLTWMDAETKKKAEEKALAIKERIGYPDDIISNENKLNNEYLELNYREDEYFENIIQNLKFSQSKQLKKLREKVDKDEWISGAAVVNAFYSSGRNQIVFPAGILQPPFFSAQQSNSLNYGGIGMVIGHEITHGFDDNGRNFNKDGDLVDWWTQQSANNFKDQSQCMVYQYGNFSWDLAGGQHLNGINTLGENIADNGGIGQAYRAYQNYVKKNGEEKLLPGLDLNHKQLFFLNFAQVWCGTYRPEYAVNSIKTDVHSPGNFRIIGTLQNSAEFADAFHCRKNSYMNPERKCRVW
Method: To measure NEP activity in brain tissue, whole brains without cerebellum were dissected from adult mice (C57Bl/6j or 5XFAD) and homogenized with a Teflon-glass homogenizer in five volumes (w/v) of ice-cold lysis buffer containing PBS (pH 7.4), 0.25 M sucrose and protease inhibitor cocktail (Complete™, EDTA-free, Roche Diagnostics, Indianapolis, IN). The homogenates were centrifuged at 9000 × g for 15 min at 4 °C. The supernatants were further centrifuged at 20,000 × g at 4 °C for 20 min. The resulting pellets were solubilized in resuspension buffer containing PBS (pH 7.4) and 1% Triton X-100 for 1 h on ice and again centrifuged at 20,000 × g at 4 °C for 20 min. Clear supernatants were used as membrane-extracted fractions. Protein concentrations of Triton-extracted membrane fractions were determined using the Pierce BCA Protein Assay kit (Thermo Fisher Scientific). The standard assay mixture consisted of membrane fraction containing 40 μg total protein diluted in 40 μl of dilution buffer, 10 μl of testing compound (NL1, neurolide or vehicle), and 50 μl of NEP substrate (5-FAM/QXL; Anaspec) in a total volume of 100 μl. The reaction was initiated by adding substrate to the assay mixture. […] Positive and negative controls were set up according to the manufacturer’s protocol (Anaspec). Fluorescence was measured at Ex/Em = 485/535 nm every 20 min for 2 h. The data were expressed as percentage of relative activity of neprilysin.

[1] = biological target: T3, recombinant neprilysin (NEP) (Homo sapiens, UniProt P08473); assay: Neprilysin activity assay with recombinant enzyme (SensoLyte 520); type: biochemical; details: peptide 5 μM, equimolar to neurolide; 5-FAM/QXL substrate, 2 h; four to five independent experiments
T3 construct: purchased Anaspec, Fremont, California, USA (SensoLyte 520 Neprilysin Activity Assay Kit)
Method: NEP activity was measured using the SensoLyte 520 Neprilysin Activity Assay Kit *Fluorimetric* (Anaspec, Fremont, California, USA) following the protocol provided by the manufacturer. Briefly, Aβ1-42 was dissolved in anhydrous DMSO to a stock concentration of 5 mM, followed by dilutions in assay buffer (100 μM, 50 μM, and 5 μM). Both NL1 (3 μM, 1 μM, 0.3 μM, 0.1 μM) and neurolide (100, 10, 5, and 1 μM) were dissolved in assay buffer. Randomly selected two additional NL1-derived peptides, NLp4, and NLp7 (5 μM, Table 1), were included in the analysis. The NEP solution (40 μl) was mixed with 10 μl of either NL1 or peptides and supplemented with 50 μl of NEP substrate (5-FAM/QXL), and the final mixture was incubated in black optical-bottom 96-well plate (Nunc, Rochester, New York, USA). In co-stimulation experiments, Aβ1-42, prepared as described above, was added to the solution in final concentrations either 0.5 μM or 5 μM. The fluorescence signal was recorded at Ex/Em = 485/535 nm every 20 min for 2 h. The data are presented as the relative activity of NEP alone.

Aβ1-42 = biological target: T4, Aβ1-42 (Homo sapiens, UniProt P05067); assay: Aβ1-42 aggregation assay (thioflavin T fluorescence); details: 75 μM Aβ1-42 + 10 μM peptide, 37 °C, 8 days, 50 mM Tris pH 7.4, ThT 5 μM, triplicates; slopes compared with Aβ alone
T4 construct: Aβ1-42, at a final concentration of 75 μM (pH 7.4); purchased Bachem AG (Bubendorf, Switzerland) or Schafer-N; host or cells: synthetic peptide
Method: Aβ1-42 was dissolved in sterile deionized water to a final concentration of 1 mM. Then, the peptide was subjected to a basic shock by adding 2 M NaOH to pH 12 followed by neutralization with 1 M HCl. Aβ1-42, at a final concentration of 75 μM (pH 7.4) either alone or in combination with NL1 (1 μM), neurolide (10 μM), or NLp7 (10 μM), was loaded in triplicates on 96-well plate. Immediately after mixing the samples, thioflavin T (5 μM, ThT; Sigma-Aldrich), dissolved in the aggregation buffer (50 mM Tris, pH 7.4), was added to wells and plate was incubated at 37 °C for 8 days. The formation of beta-amyloid aggregates was monitored first for 210 min and then every 24 h by recording changes in ThT fluorescence at excitation/emission (Ex/Em) = 440/482 nm.

[2] = biological target: Recombinant rat neuroligin-1 (NL1), soluble extracellular domain (rat) (UniProt Q62765); assay: SPR; Biacore 2000; about 2000 RU of NL1 immobilised on a CM4 chip by amine coupling; 25 °C; HBS-P (10 mM HEPES pH 7.4, 150 mM NaCl, 0.005% P20) with 3 mM CaCl2; 20 μl/min; 1:1 Langmuir model; apparent KD = kd/ka
[3] = biological target: Biotinylated amyloid-β peptide 1-40 (Aβ1-40); assay: ELISA; competitive ELISA: NL1 (3.125 nM) coated on the plate; biotinylated Aβ1-40 (400 nM; Aβ40-1 as negative control) premixed 30 min with serially diluted NL1 or NL1-derived peptides; 4 h at room temperature; streptavidin-HRP; IC50 interpreted as KD

T1 sequence (P05067 672-711): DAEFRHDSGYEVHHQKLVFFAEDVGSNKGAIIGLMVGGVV
T3 sequence (P08473 whole entry): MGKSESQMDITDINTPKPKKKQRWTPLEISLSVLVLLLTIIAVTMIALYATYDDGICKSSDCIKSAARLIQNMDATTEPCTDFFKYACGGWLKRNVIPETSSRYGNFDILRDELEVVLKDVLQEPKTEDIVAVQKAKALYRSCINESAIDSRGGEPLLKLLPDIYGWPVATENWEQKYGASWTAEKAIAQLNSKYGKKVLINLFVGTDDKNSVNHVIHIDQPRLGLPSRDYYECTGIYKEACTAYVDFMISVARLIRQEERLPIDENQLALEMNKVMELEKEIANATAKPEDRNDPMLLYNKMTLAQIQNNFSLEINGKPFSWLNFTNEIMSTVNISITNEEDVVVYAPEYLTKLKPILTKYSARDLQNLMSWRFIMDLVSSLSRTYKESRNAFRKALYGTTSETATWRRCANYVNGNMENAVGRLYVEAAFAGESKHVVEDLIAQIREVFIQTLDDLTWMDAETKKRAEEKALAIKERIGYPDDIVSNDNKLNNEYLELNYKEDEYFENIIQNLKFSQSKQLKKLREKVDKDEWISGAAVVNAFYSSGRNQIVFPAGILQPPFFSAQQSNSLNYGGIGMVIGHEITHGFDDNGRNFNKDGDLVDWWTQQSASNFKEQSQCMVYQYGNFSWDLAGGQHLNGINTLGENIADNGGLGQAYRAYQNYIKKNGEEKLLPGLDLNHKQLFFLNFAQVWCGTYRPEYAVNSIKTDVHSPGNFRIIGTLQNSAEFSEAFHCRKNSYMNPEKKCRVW
T4 sequence (P05067 672-713): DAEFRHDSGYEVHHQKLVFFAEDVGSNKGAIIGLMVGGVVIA
Sequence of Recombinant rat neurexin-1β (NX1β) (Q63373 47-391): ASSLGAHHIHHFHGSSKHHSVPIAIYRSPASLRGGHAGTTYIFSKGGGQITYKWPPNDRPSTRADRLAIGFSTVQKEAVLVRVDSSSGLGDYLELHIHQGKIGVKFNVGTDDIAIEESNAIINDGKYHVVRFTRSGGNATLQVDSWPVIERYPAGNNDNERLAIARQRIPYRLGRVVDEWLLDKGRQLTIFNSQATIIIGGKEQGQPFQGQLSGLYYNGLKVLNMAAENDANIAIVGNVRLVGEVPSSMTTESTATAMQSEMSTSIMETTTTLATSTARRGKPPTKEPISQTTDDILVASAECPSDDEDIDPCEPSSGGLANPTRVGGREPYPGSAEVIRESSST

ATADLHSNFGS [NLp8, NL1-derived peptide …]
KD (binding affinities to Aβ1-42, as in the table title) (Aβ1-40): No binding

O=C(O)CNC(=O)C(CS)Cc1ccccc1 (stereo not shown) [Thiorphan, reference compound]
activity of brain-derived NEP (brain-derived NEP): completely blocked

AENIVDSDDG [NLp4, NL1-derived peptide …]
KD (binding affinities to Aβ1-42, as in the table title) (Aβ1-40): No binding
activity of recombinant NEP [1]: had no effect

SGGPKPVMYIHG [NLp1, NL1-derived peptide …]
KD (binding affinities to Aβ1-42, as in the table title) (Aβ1-40): No binding

SVPVTSAFPTAKQDDA [NLp7, NL1-derived peptide …]
KD (binding affinities to Aβ1-42, as in the table title) (Aβ1-40): No binding
activity of recombinant NEP [1]: had no effect
development of ThT fluorescence (Aβ aggregation) (Aβ1-42): had no effect

ASFQPAKYA [NLp3, NL1-derived peptide …]
KD (binding affinities to Aβ1-42, as in the table title) (Aβ1-40): No binding

Amyloid-β peptide 1-42 (Aβ1-42)
Kd [2]: 72 nM

AHTKPNRFEA [NLp6, NL1-derived peptide …]
KD (binding affinities to Aβ1-42, as in the table title) (Aβ1-40): No binding

CC[C@H](C)[C@H](N)C(=O)N[C@H](C(=O)N[C@H](C(=O)N[C@@H](CC(N)=O)C(=O)N[C@@H](Cc1ccc(O)cc1)C(=O)N[C@@H](CCCNC(=N)N)C(=O)N[C@@H](CC(C)C)C(=O)NCC(=O)NCCCC[C@H](NC(=O)CNC(=O)[C@H](CC(C)C)NC(=O)[C@H](CCCNC(=N)N)NC(=O)[C@H](Cc1ccc(O)cc1)NC(=O)[C@H](CC(N)=O)NC(=O)[C@@H](NC(=O)[C@@H](NC(=O)[C@@H](N)[C@@H](C)CC)[C@@H](C)O)C(C)C)C(=O)NCCCC[C@H](NC(=O)[C@H](CCCCNC(=O)CNC(=O)[C@H](CC(C)C)NC(=O)[C@H](CCCNC(=N)N)NC(=O)[C@H](Cc1ccc(O)cc1)NC(=O)[C@H](CC(N)=O)NC(=O)[C@@H](NC(=O)[C@@H](NC(=O)[C@@H](N)[C@@H](C)CC)[C@@H](C)O)C(C)C)NC(=O)CNC(=O)[C@H](CC(C)C)NC(=O)[C@H](CCCNC(=N)N)NC(=O)[C@H](Cc1ccc(O)cc1)NC(=O)[C@H](CC(N)=O)NC(=O)[C@@H](NC(=O)[C@@H](NC(=O)[C@@H](N)[C@@H](C)CC)[C@@H](C)O)C(C)C)C(N)=O)C(C)C)[C@@H](C)O [NLp2] (I: H-ITVNYRLGKK-NH2 / II: H-ITVNYRLGK / III: H-ITVNYRLG / IV: H-ITVNYRLG; amide I:9-IV:C, I:10-II:C, II:9-III:C; N-terminus and C-terminus assumed)
development of ThT fluorescence (Aβ aggregation) (Aβ1-42): had no effect

Recombinant rat neurexin-1β (NX1β) (from UniProt Q63373 47-391) (natural protein)
Kd [2]: 6.64 nM

ASDFDFAVSN [NLp5, NL1-derived peptide …]
KD (binding affinities to Aβ1-42, as in the table title) (Aβ1-40): No binding

SEGNRWSNSTKGLFQRA (also: tetramer: four copies coupled to a lysine backbone) [Neurolide, NL1-derived synthetic peptide (tetramer on a lysine backbone)]
Kd [3]: 35.3 nM

ITVNYRLG (also: tetramer: four copies coupled to a lysine backbone) [NLp2, NL1-derived synthetic peptide (tetramer on a lysine backbone)]
Kd [3]: 676 nM
